# Read-outs that look alike come from different tables or passages of the source.
# Legend:
# [1] = test system: MCF-7 cells; assay: Annexin V/PI double staining for apoptosis detection; assay type: cell-based; settings: FIG. 6
# Text: The surface of normal cells consists of lipids distributed asymmetrically on the inner and outer leaflets of the plasma membrane. One of them, phosphatidylserine (PS), is normally distributed only on the inner leaflet of the plasma membrane, and is therefore exposed only to the cytoplasm. However, when cells undergo apoptosis, PS is exposed on the outer leaflets of the plasma membrane. Annexin V is a phospholipid-binding protein capable of binding to PS. Therefore, fluorescently labeled Annexin V can be used to detect PS exposed to the outer leaflets of early apoptotic cells. By co-staining with propidium iodide (PI), Annexin V-PI can distinguish normal living cells, early apoptotic cells, and late apoptotic cells. Cell treatment: MCF-7 cells in the logarithmic growth phase were taken for the experiment. Cells were inoculated in six-well plates at a density of 5.0×10^5 cells/per well and incubated at 37° C. for 24 hours. Cells were treated with Example PROTAC drug AS2 and PROTAC prodrug A1 for 3 h, followed by X-ray irradiation, and cells continued to be cultured until 48 h after completion of irradiation. Cell collection: Collect the culture medium in a 1.5 mL centrifuge tube for spare. […] After incubation for 15 min at room temperature away from light, fluorescence detection was carried out by flow cytometry.
# [2] = test system: MCF-7 cells; assay: In vitro anti-tumor effect, CellTiter 96 viability assay; assay type: cell-based; settings: Homo sapiens, MCF7, light or radiation study
# Description: Experimental Procedure: MCF-7 cells in the logarithmic growth phase were used for the experiment. The cells were seeded at 5000 cells per well in 96-well plates and incubated for 24 hours at 37° C. The cells were treated with Example compounds A1-D3 for 3 h. Subsequently, the irradiated group was irradiated with 10-30 Gy of X-rays, and the cells were continued to be incubated until 72 h after completion of irradiation. At the end of drug treatment, 20 μL of CellTiter 96° solution was added to each well. The well plates were incubated in an incubator for 2-4 hours, and then the absorbance was measured using a plate reader. Data were analyzed with GraphPad Prism software to obtain the IC50 values of each test compound.
# [3] = test system: MCF-7 cell line; assay: In vivo anti-tumor activity, MCF-7 tumor model; design: species or system BALB/c nude mice; settings: for tumor growth (tumor volume): 10 mg/kg subcutaneous injection
# Description: To investigate the in vivo activation and antitumor activity of the PROTAC compound AS2 and X-ray-responsive PROTAC compound A1, we performed in vivo antitumor activity studies. The MCF-7 cell line was selected, and experiments were performed in BALB/c nude mice. Experimental animals: BALB/c nude mice (female; 6-8 weeks old) were all purchased from Beijing Vital River Laboratory Animal Technology Co., Ltd and housed in pathogen-free conditions with standard temperature and humidity at the Laboratory Animal Resources Center of Tsinghua University. All animal experiments were approved by the Animal Ethics Committee of Tsinghua University. Tumor model establishment: MCF-7 cells in logarithmic growth phase were taken, and 0.25% trypsin was added to digest the cells after washing the cells for 3 times with pre-cooled PBS buffer. The digested cells were centrifuged at 1000 rpm/min for 5 min, the precipitate was discarded, and the cells were resuspended with pre-cooled PBS and carefully blown to make a single-cell solution. After the cells were counted by a counter, the cell density was adjusted to 1×10^7 cells/mL, and 10 mL was taken into a centrifuge tube and stored on ice. Before inoculation of cancer cells, nude mice were gently wiped under the skin of the right axilla with a paper towel sprayed with 75% alcohol. A 1 mL disposable syringe was used to aspirate 200 μL of cell suspension, and the air in the needle was removed, and a single subcutaneous injection was carried out by puncturing about 1 cm forward from the needle inlet site. The needle was withdrawn slowly to avoid fluid leakage. Observe the tumor growth status daily. Drug administration: When the tumor volume reached 120 mm^3, the tumor-bearing mice were randomly grouped. Six groups were set up, namely PBS, PROTAC drug AS2, PROTAC prodrug A1, PBS+X-ray irradiation, PROTAC drug AS2+X-ray irradiation, and PROTAC prodrug A1+X-ray irradiation. Each drug was dispersed in the following solution: 1.25% DMSO+20% PEG+5% Tween 80+73.75% dd H2O; administered dose: 10 mg/kg; subcutaneous injection. X-ray irradiation was performed 3 hours after drug injection. The irradiation dose was 5 Gy. Tumor size and body weight were monitored every other day. Tumor volume was calculated using the formula: tumor volume=length×width^2/2. After 16 days of monitoring, mice in each group were euthanized, and tumors and major organs were collected.
# [4] = molecular target: T1, BRD4 (Homo sapiens, UniProt O60885); assay: Protein degradation activity, Western blotting of BRD4 in MCF-7 cells; assay type: cell-based
# T1 construct: endogenous in cells; host or cells: MCF-7
# Description: Cell treatment: MCF-7 cells in the logarithmic growth phase were taken for the experiment. Cells were inoculated in six-well plates at a density of 5.0×10^5 cells/per well and incubated at 37° C. for 24 hours. […]
# Whole cell protein extraction: After completion of drug treatment, the culture medium was discarded, and the cells were washed 3 times with pre-cooled PBS. Cells were scraped off using a cell scraper, and the resulting solution was carefully aspirated and centrifuged at 300 g for 5 min at 4° C. to obtain cells, which were washed with PBS, resuspended, and centrifuged under the same conditions.
# Cell lysis: Cells were washed with pre-cooled PBS and lysed in pre-cooled lysis buffer (containing 1% protease and phosphatase inhibitor) for 30 min, and cells were vigorously vortexed several times during lysis. After lysis was completed, the cells were centrifuged at 11,000 g for 15 min at 4° C., and the supernatant was collected as whole cell protein.
# Protein denaturation: protein concentration was measured by Bradford assay. Proteins were diluted using 4× Protein Sampling Buffer. Subsequently, the proteins were denatured by heating in a metal bath at 100° C. for 15 min.
# Protein Immunoblotting Assay (Western Blotting, WB) was Performed to Quantify BRD4 Protein:
# 1) Protein electrophoresis: proteins were separated in 4-12% or 4-20% Bis-Tris SDS-PAGE gels. The appropriate volume of the above cell whole protein extract was added to the lanes of the above SDS-PAGE gel. Turn on the power and electrophoresis at 120 V for 15 minutes, then adjust the voltage to 180 V and continue electrophoresis until the loading buffer reaches the lowest end of the gel.
# (2) Membrane transfer: After electrophoresis, remove the gel, cut a PVDF membrane […] of the appropriate size and activate the membrane with anhydrous methanol, and install the membrane transfer device in the following order from the negative pole to the positive pole: sponge cushion, gel, PVDF membrane, sponge cushion. After installing the membrane transfer device, place it in the corresponding membrane transfer tank, check the liquid level of the solution required for membrane transfer, turn on the power, and complete the membrane transfer after 3 transfer cycles.
# 3) Blocking: Place the membrane in QuickBlock™ Western Blocking Buffer and shake it for 20 minutes at room temperature.
# 4) Primary antibody incubation: After the blocking, discard the blocking solution, add the primary antibody diluted to the appropriate concentration, and gently shake the membrane overnight at 4° C. After completing the incubation, wash the membrane 4 times with 1×TBST for 5 min/time.
# (5) Secondary antibody incubation: Add secondary antibody diluted to the appropriate concentration and gently shake the PVDF membrane for 1 hour at room temperature. After incubation, the membrane was washed 4 times with 1×TBST for 5 min/time.
# 6) Developing: Prepare the ECL developing solution before developing. Lay the PVDF membrane flat on a clean plastic wrap, add the developer solution to the membrane, and let it stand for 1 minute away from light. Subsequently, the PVDF membrane was imaged on a gel system.
# [5] = X-ray 5 Gy 3 hours after drug injection
# [6] = no irradiation, compared with PBS group
"IC50 ([2]; compound 3 h, then X-rays 10 Gy or 30 Gy, 72 h after irradiation, read-out: Irradiation with 10 Gy or 30 Gy IC50)","IC50 ([2]; no irradiation, 72 h incubation, read-out: Radiation-free IC50)","BRD4 degradation ([4]; co-treated with X-ray irradiation, 10 nM prodrug, FIG. 5)","degradation activity on BRD4 with X-ray irradiation ([4]; co-treated with X-ray irradiation, FIG. 5)","degradation activity on BRD4 prior to activation ([4]; no irradiation, 0-300 nM, FIG. 4)","DC50 ([4]; WB, FIG. 3)","degradation activity on BRD4 ([4]; tested concentrations 0-300 nM, FIG. 3)",SMILES,"ability to induce apoptosis ([1]; X-rays and compound together, 48 h after irradiation)",ability to induce apoptosis ([1]; without X-ray irradiation),"tumor growth (tumor volume) [3, 5]","tumor growth (tumor volume) [3, 6]","tumor weight at day 16 ([3]; 10 mg/kg subcutaneous, two administrations with radiation therapy, FIG. 9)"
122 nM,1020 nM,> 50%,significantly degraded,failed to degrade BRD4,,,Cc1ncsc1-c1ccc([C@H](C)NC(=O)[C@@H]2C[C@@H](OC(=O)OCc3c(F)c(F)c(N=[N+]=[N-])c(F)c3F)CN2C(=O)[C@H](NC(=O)COCCOCCOCCNC(=O)C[C@@H]2N=C(c3ccc(Cl)cc3)c3c(sc(C)c3C)-n3c(C)nnc32)C(C)(C)C)cc1 [Compound A1],significantly elevated early apoptotic and late apoptotic cells,comparable to that of control DMSO,enhance the efficacy of radiation therapy,failed to inhibit the tumor growth,
,,,,,31.2 nM,effectively degraded BRD4,Cc1ncsc1-c1ccc([C@H](C)NC(=O)[C@@H]2C[C@@H](O)CN2C(=O)[C@H](NC(=O)COCCOCCOCCNC(=O)C[C@@H]2N=C(c3ccc(Cl)cc3)c3c(sc(C)c3C)-n3c(C)nnc32)C(C)(C)C)cc1 [AS2],,,tumor growth was significantly inhibited,poor antitumor effect,essentially no tumor growth

# Reference: US20260199481A1, “PROTEIN DEGRADATION TARGETING CHIMERA COMPOUND, COMPOSITION THEREOF, AND USE THEREOF” (TSINGHUA UNIVERSITY, priority 2022, published 2026)
